Target: T1, Fatty-acid amide hydrolase 1 (Mus musculus, UniProt O08914)
T1 sequence (O08914 whole entry): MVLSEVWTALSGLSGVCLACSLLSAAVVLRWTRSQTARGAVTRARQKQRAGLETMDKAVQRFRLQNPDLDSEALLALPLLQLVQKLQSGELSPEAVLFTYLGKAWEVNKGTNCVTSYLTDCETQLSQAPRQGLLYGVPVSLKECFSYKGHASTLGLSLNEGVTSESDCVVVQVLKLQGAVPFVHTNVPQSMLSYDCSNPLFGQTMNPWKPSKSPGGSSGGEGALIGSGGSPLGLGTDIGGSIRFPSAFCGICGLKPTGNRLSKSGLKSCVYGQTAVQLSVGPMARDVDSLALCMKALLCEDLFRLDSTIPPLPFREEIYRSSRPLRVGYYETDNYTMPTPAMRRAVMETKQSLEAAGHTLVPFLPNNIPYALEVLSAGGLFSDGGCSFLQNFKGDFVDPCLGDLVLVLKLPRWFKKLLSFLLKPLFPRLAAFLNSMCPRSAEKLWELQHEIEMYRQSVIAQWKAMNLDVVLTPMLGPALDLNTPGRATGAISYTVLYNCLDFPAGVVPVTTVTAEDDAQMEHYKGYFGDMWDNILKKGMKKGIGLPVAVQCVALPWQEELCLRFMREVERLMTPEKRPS
Test: In Vitro Competitive Activity-Based Protein Profiling: Proteomes (mouse brain membrane fraction or cell lysates) (50 μL, 1.0 mg/mL total protein concentration) were preincubated with varying concentrations of inhibitors at 37° C. After 30 min, FP¿Rh (1.0 μL, 50 μM in DMSO) was added and the mixture was incubated for another 30 min at 37° C. Reactions were quenched with SDS loading buffer (50 μL-4×) and run on SDS-PAGE. Following gel imaging, serine hydrolase activity was determined by measuring fluorescent intensity of gel bands corresponding to MAGL, ABHD6 and FAAH using ImageJ 1.43u software.

IC50: > 1 µM
Structure (SMILES): O=C(OC(C(F)(F)F)C(F)(F)F)N1CCC2(CCCN2Cc2ccc(OCCN3CCOCC3)cc2)CC1

From ChEMBL document CHEMBL5725658, “Spirocycle compounds and methods of making and using same” (2018)
